Test results: article PMC5477233 (Chembiochem : a European journal of chemical biology, 2016)
Entries after “also recorded” stand apart in the source; their conditions may differ.

System: human insulin receptor
Experiment: in vitro binding to the human insulin receptor
Conditions: compared with wild-type biosynthetic human insulin (Figure S10)

[(1-^13C=^18O)Phe^B24]human insulin
receptor-binding activity: full insulin receptor binding activity; also recorded: fully active in insulin receptor binding
